Broadly, the pIC50 is the IC50 on a negative log10 scale, so that one unit is a factor of ten. Higher therefore signals a small IC50. In general, chromatographic logD refers to lipophilicity estimated from chromatographic retention. Read a high chromatographic logD as a more lipophilic compound. By logD is commonly meant lipophilicity at a set pH, counting ionised and neutral species. Low values mean a more hydrophilic compound, high ones a more lipophilic compound.

pIC50: −log10 of the molar value. Some results are limits rather than exact numbers.

The target in one series is Integrin alpha-V/beta-6 (Homo sapiens, UniProt P06756+P18564). The series can be described thus: Inhibition of integrin alphavbeta6 (unknown origin)-mediated K562 cell adhesion to LAPb1 coated surface by fluorescence analysis. In kind it is cell-based.
In another series the target is Integrin alpha-V/beta-3 (Homo sapiens, UniProt P05106+P06756). The series can be described thus: Inhibition of integrin alphavbeta3 (unknown origin)-mediated K562 cell adhesion to LAPb1 coated surface by fluorescence analysis. In kind it is cell-based.
For another series, the target named is Integrin alpha-V/beta-5 (Homo sapiens, UniProt P06756+P18084). The series can be described thus: Inhibition of integrin alphavbeta5 (unknown origin)-mediated K562 cell adhesion to vitronectin coated surface by fluorescence analysis. In kind it is cell-based.
A further series addresses Integrin alpha-V/beta-8 (Homo sapiens, UniProt P06756+P26012). The series can be described thus: Inhibition of integrin alphavbeta8 (unknown origin)-mediated K562 cell adhesion to LAPb1 coated surface by fluorescence analysis. In kind it is cell-based.
The nature of series [1]: Lipophilicity, log D of the compound by HPLC chromatographic method. In kind it is physicochemical.

Sequence of Integrin alpha-V/beta-3 (P05106 27-788 limits assumed): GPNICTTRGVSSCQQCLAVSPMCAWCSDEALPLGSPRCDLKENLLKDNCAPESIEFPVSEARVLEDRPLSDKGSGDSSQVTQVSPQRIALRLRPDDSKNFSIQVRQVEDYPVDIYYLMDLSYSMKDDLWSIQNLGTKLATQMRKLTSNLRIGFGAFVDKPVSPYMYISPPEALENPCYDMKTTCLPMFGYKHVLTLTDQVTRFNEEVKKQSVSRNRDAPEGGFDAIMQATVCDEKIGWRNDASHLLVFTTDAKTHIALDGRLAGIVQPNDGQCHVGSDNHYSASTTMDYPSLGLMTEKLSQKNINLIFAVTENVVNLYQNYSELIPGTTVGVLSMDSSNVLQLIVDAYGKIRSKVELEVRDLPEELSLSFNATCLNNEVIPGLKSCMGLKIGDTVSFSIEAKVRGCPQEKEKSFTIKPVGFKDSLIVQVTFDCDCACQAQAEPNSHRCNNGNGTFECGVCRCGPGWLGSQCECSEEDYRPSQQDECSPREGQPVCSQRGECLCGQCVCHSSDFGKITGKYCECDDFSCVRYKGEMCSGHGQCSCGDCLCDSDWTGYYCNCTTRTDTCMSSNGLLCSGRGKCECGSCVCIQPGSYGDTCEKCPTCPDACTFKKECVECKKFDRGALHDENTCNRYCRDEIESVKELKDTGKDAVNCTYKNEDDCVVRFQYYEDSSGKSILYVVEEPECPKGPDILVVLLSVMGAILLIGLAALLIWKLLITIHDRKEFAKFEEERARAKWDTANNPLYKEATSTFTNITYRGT
Sequence of Integrin alpha-V/beta-3 (P06756 31-889 limits assumed): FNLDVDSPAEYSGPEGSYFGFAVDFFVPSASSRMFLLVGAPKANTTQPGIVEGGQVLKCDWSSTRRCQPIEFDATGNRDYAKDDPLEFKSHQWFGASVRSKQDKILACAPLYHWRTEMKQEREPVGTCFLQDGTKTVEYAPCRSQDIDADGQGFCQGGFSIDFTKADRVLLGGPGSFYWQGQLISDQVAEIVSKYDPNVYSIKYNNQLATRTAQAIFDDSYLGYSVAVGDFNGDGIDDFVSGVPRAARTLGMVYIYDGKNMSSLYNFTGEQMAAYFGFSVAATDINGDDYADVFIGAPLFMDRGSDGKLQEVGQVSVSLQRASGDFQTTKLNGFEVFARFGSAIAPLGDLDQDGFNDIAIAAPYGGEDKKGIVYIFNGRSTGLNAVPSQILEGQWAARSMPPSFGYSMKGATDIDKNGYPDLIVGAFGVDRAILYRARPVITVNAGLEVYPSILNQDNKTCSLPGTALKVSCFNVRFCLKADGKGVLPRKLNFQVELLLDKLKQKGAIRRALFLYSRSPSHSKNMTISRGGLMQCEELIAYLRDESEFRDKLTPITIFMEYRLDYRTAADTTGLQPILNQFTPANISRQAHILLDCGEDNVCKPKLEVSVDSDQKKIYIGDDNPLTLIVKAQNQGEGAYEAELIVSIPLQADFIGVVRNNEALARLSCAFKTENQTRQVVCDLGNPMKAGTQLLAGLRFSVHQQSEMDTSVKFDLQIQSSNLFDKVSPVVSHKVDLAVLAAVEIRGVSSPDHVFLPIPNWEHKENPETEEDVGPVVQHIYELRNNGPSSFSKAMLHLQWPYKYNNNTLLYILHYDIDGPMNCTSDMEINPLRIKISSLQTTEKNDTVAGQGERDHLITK
Sequence of Integrin alpha-V/beta-3 (P06756 891-1048 limits assumed): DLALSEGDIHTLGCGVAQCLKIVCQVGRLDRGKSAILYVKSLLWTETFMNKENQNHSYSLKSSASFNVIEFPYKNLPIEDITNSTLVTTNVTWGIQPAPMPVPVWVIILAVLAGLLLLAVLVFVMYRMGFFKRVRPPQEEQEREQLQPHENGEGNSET
Sequence of Integrin alpha-V/beta-8 (P06756 31-889 limits assumed): as the sequence (P06756 31-889 limits assumed) above
Sequence of Integrin alpha-V/beta-8 (P06756 891-1048 limits assumed): as the sequence (P06756 891-1048 limits assumed) above
Sequence of Integrin alpha-V/beta-8 (P26012 43-769 limits assumed): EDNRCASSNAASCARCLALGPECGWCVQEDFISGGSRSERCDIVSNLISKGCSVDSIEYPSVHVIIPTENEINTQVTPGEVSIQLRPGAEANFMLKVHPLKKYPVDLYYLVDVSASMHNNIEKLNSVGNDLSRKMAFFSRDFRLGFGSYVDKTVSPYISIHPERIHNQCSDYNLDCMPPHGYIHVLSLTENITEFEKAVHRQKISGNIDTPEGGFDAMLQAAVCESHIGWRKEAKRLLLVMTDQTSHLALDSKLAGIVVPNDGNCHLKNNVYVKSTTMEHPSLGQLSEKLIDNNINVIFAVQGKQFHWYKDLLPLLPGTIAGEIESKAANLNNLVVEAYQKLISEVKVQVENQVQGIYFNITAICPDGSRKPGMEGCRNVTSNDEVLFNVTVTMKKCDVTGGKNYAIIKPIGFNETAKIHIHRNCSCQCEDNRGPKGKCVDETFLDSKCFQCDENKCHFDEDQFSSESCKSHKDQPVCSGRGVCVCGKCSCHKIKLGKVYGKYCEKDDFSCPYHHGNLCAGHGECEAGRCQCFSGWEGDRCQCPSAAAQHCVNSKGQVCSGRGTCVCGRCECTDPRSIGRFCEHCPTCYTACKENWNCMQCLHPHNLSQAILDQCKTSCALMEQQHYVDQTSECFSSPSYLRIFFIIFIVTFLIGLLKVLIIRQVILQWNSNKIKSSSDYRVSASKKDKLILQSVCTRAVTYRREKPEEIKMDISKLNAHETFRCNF
Sequence of Integrin alpha-V/beta-6 (P06756 31-889 limits assumed): as the sequence (P06756 31-889 limits assumed) above
Sequence of Integrin alpha-V/beta-6 (P06756 891-1048 limits assumed): as the sequence (P06756 891-1048 limits assumed) above
Sequence of Integrin alpha-V/beta-6 (P18564 22-788 limits assumed): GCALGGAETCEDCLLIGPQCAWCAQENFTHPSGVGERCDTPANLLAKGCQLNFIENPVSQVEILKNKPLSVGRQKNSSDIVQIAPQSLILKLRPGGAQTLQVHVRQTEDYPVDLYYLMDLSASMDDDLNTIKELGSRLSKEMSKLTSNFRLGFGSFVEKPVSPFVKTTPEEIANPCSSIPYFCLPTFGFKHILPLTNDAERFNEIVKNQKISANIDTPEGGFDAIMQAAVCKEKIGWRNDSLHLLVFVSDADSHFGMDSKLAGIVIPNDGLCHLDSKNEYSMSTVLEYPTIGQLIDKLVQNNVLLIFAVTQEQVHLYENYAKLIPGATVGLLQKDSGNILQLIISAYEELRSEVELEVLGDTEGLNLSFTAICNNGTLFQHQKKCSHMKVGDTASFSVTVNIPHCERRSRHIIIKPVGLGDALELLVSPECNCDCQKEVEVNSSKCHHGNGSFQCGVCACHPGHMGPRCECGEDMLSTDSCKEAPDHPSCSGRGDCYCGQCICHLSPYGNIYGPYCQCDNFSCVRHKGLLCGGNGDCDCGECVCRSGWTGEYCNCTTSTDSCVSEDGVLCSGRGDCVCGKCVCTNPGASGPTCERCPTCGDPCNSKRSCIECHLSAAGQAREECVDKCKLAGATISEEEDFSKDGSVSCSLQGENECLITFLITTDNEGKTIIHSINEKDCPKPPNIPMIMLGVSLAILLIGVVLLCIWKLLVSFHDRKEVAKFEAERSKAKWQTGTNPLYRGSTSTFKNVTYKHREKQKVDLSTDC
Sequence of Integrin alpha-V/beta-5 (P06756 31-889 limits assumed): as the sequence (P06756 31-889 limits assumed) above
Sequence of Integrin alpha-V/beta-5 (P06756 891-1048 limits assumed): as the sequence (P06756 891-1048 limits assumed) above
Sequence of Integrin alpha-V/beta-5 (P18084 24-799 limits assumed): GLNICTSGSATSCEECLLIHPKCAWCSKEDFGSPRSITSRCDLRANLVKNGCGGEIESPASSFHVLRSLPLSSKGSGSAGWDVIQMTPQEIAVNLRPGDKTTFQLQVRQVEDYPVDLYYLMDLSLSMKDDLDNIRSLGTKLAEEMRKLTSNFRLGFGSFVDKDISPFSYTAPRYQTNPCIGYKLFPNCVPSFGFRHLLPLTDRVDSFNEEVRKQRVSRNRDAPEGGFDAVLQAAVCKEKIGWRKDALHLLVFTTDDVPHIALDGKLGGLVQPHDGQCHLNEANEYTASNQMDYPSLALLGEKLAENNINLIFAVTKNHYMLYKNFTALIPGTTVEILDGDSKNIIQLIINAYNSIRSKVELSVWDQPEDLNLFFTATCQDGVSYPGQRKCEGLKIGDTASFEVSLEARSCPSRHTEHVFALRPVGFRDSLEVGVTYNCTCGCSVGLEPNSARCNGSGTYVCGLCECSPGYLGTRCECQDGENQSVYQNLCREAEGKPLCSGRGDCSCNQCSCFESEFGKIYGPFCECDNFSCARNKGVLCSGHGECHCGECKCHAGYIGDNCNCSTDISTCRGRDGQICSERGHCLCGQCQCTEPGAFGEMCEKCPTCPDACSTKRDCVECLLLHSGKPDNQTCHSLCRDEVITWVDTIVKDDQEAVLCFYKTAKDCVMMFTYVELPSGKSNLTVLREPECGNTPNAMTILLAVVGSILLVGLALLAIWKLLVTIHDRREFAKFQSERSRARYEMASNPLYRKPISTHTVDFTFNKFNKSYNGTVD

For the compound `O=C(O)CC(NC(=O)CCCCc1ccc2c(n1)NCCC2)c1ccccc1F` (racemic), the pIC50 against Integrin alpha-V/beta-6 was 6.00; against Integrin alpha-V/beta-3, 6.50; against Integrin alpha-V/beta-5, 7.00; against Integrin alpha-V/beta-8 it was 5.40. The compound also gave a chromatographic logD in series [1] of 1.88.

On to `O=C(O)CC(NC(=O)CCCCc1ccc2c(n1)NCCC2)c1ccccc1Cl` (racemic), for which the pIC50 against Integrin alpha-V/beta-6 was under 5.00; on Integrin alpha-V/beta-3, 5.70; against Integrin alpha-V/beta-5 it was 5.80; against Integrin alpha-V/beta-8 it was under 5.00. For the same compound, in series [1], the chromatographic logD was determined as 1.92.

Turning to `O=C(O)CC(NC(=O)CCCCc1ccc2c(n1)NCCC2)c1cc(Cl)cc(Cl)c1` (racemic), the pIC50 at Integrin alpha-V/beta-6 was 6.60; against Integrin alpha-V/beta-3 it was 6.40; on Integrin alpha-V/beta-5 it was 6.70; at Integrin alpha-V/beta-8 it was 6.60. The compound also registered a chromatographic logD in series [1] of 2.93.

Regarding `O=C(O)CC(NC(=O)CCCCc1ccc2c(n1)NCCC2)c1ccc(Cl)c(C(F)(F)F)c1` (single isomer, unassigned; enantiomer 2), the pIC50 against Integrin alpha-V/beta-6 is under 5.00; on Integrin alpha-V/beta-3 it was 5.80; against Integrin alpha-V/beta-5, 6.20; against Integrin alpha-V/beta-8, under 5.00. Further, the logD in series [1] is 3.25.

With `Cc1ccccc1C(CC(=O)O)NC(=O)CCCCc1ccc2c(n1)NCCC2` (racemic), the pIC50 at Integrin alpha-V/beta-6 was 6.40; at Integrin alpha-V/beta-3 it was 7.30; at Integrin alpha-V/beta-5 it was 7.70; against Integrin alpha-V/beta-8, 5.90. Besides, the chromatographic logD in series [1] came out at 1.85.

Take `O=C(O)CC(NC(=O)CCCCc1ccc2c(n1)NCCC2)c1cccc(C(F)(F)F)c1` (racemic): the pIC50 was 7.00 on Integrin alpha-V/beta-6, 6.70 against Integrin alpha-V/beta-3, 7.40 at Integrin alpha-V/beta-5 and 6.80 against Integrin alpha-V/beta-8. This compound registered a chromatographic logD in series [1] of 2.73.

On to `O=C(O)CC(NC(=O)CCCCc1ccc2c(n1)NCCC2)c1ccc(F)cc1` (racemic), for which the pIC50 on Integrin alpha-V/beta-6 was 6.30; on Integrin alpha-V/beta-3, 7.00; on Integrin alpha-V/beta-5 it was 7.20; against Integrin alpha-V/beta-8, 6.30. For the same compound, the chromatographic logD in series [1] amounted to 1.75.

`O=C(O)CC(NC(=O)CCCCc1ccc2c(n1)NCCC2)c1ccc(-c2ccccc2)cc1` (racemic): the pIC50 against Integrin alpha-V/beta-6 was 6.40; on Integrin alpha-V/beta-3, 7.00; on Integrin alpha-V/beta-5, 6.20; on Integrin alpha-V/beta-8 it was 6.50. In series [1], this compound displayed a chromatographic logD of 3.1.

With `O=C(O)C[C@@H](NC(=O)CCCCc1ccc2c(n1)NCCC2)c1cccc(C(F)(F)F)c1`, the pIC50 is 5.20 against Integrin alpha-V/beta-6, under 5.00 against Integrin alpha-V/beta-3, 5.70 against Integrin alpha-V/beta-5 and under 5.00 against Integrin alpha-V/beta-8. The chromatographic logD in series [1] is 2.61.

On to `Cc1cc(C)cc(C(CC(=O)O)NC(=O)CCCCc2ccc3c(n2)NCCC3)c1` (racemic), for which the pIC50 was 6.30 on Integrin alpha-V/beta-6, 6.40 on Integrin alpha-V/beta-3, 6.40 on Integrin alpha-V/beta-5 and 6.20 against Integrin alpha-V/beta-8. The compound further displayed a chromatographic logD in series [1] of 2.43.

For `CS(=O)(=O)c1ccc(C(CC(=O)O)NC(=O)CCCCc2ccc3c(n2)NCCC3)cc1` (racemic), the pIC50 on Integrin alpha-V/beta-6 was 6.20; against Integrin alpha-V/beta-3 it was 6.90; at Integrin alpha-V/beta-5, 6.40; against Integrin alpha-V/beta-8, 6.10. The compound also showed a chromatographic logD in series [1] of 1.08.

With `Cc1ccc(C(CC(=O)O)NC(=O)CCCCc2ccc3c(n2)NCCC3)cc1` (racemic), the pIC50 against Integrin alpha-V/beta-6 was 6.10; against Integrin alpha-V/beta-3, 7.40; on Integrin alpha-V/beta-5, 7.00; against Integrin alpha-V/beta-8, 6.00. This compound also yielded a chromatographic logD in series [1] of 1.97.

In the case of `Cc1cccc(C(CC(=O)O)NC(=O)CCCCc2ccc3c(n2)NCCC3)c1` (racemic), the pIC50 against Integrin alpha-V/beta-6 is 6.40; against Integrin alpha-V/beta-3, 6.80; at Integrin alpha-V/beta-5, 7.30; on Integrin alpha-V/beta-8 it was 6.20. This compound also showed a chromatographic logD in series [1] of 1.95.

For `O=C(O)C[C@H](NC(=O)CCCCc1ccc2c(n1)NCCC2)c1cccc(C(F)(F)F)c1`, the pIC50 was 7.10 on Integrin alpha-V/beta-6, 7.00 against Integrin alpha-V/beta-3, 7.20 on Integrin alpha-V/beta-5 and 6.90 against Integrin alpha-V/beta-8. For the same compound, the chromatographic logD in series [1] is 2.72.

Take `O=C(O)CC(NC(=O)CCCCc1ccc2c(n1)NCCC2)c1ccc(C(F)(F)F)cc1` (racemic): the pIC50 at Integrin alpha-V/beta-6 was 6.20; at Integrin alpha-V/beta-3, 6.60; at Integrin alpha-V/beta-5 it was 6.50; against Integrin alpha-V/beta-8 it was 6.10. The compound further returned a chromatographic logD in series [1] of 2.72.

Consider `O=C(O)CC(NC(=O)CCCCc1ccc2c(n1)NCCC2)c1ccc(Cl)c(C(F)(F)F)c1` (single isomer, unassigned; enantiomer 1), for which the pIC50 against Integrin alpha-V/beta-6 was 7.20; on Integrin alpha-V/beta-3 it was 6.80; at Integrin alpha-V/beta-5, 7.20; against Integrin alpha-V/beta-8, 6.90. In series [1], this compound registered a logD of 3.28.

`O=C(O)CC(NC(=O)CCCCc1ccc2c(n1)NCCC2)c1ccc(Cl)c(C(F)(F)F)c1` (racemic): the pIC50 against Integrin alpha-V/beta-6 is 7.00; on Integrin alpha-V/beta-3, 6.50; against Integrin alpha-V/beta-5, 6.90; against Integrin alpha-V/beta-8, 6.60. This compound also registered a chromatographic logD in series [1] of 3.1.

On Integrin alpha-V/beta-6, `N=C(N)Nc1cccc(C(=O)NCC(=O)NC(CC(=O)O)c2cc(Cl)cc(Cl)c2)c1` (stereo unspecified) showed a pIC50 of 6.80.

For the compound `O=C(O)CC(NC(=O)CCCCc1ccc2c(n1)NCCC2)c1ccc2c(c1)OCO2` (racemic), the pIC50 was 6.60 on Integrin alpha-V/beta-6, 7.80 on Integrin alpha-V/beta-3, 7.90 against Integrin alpha-V/beta-5 and 6.10 at Integrin alpha-V/beta-8. In series [1], this compound showed a chromatographic logD of 1.47.

With `COc1ccccc1C(CC(=O)O)NC(=O)CCCCc1ccc2c(n1)NCCC2` (racemic), the pIC50 against Integrin alpha-V/beta-6 is under 5.00; on Integrin alpha-V/beta-3, 6.30; on Integrin alpha-V/beta-5 it was 6.30; against Integrin alpha-V/beta-8, under 5.00. The compound also showed a chromatographic logD in series [1] of 1.83.

Consider `O=C(O)CC(NC(=O)CCCCc1ccc2c(n1)NCCC2)c1ccc(OC(F)(F)F)cc1` (racemic), for which the pIC50 on Integrin alpha-V/beta-6 was 6.20; against Integrin alpha-V/beta-3 it was 6.80; against Integrin alpha-V/beta-5, 6.30; on Integrin alpha-V/beta-8 it was 6.10. This compound also yielded a chromatographic logD in series [1] of 2.85.

As for `O=C(O)CC(NC(=O)CCCCc1ccc2c(n1)NCCC2)c1cc(Cl)cc(Cl)c1` (single isomer, unassigned; enantiomer 2), the pIC50 was 6.80 against Integrin alpha-V/beta-6, 6.90 on Integrin alpha-V/beta-3, 6.60 against Integrin alpha-V/beta-5 and 7.00 on Integrin alpha-V/beta-8. For the same compound, the logD in series [1] is recorded as 2.8.

Take `N#Cc1ccc(C(CC(=O)O)NC(=O)CCCCc2ccc3c(n2)NCCC3)cc1` (racemic): the pIC50 at Integrin alpha-V/beta-6 is 6.40; at Integrin alpha-V/beta-3, 7.10; against Integrin alpha-V/beta-5 it was 6.40; on Integrin alpha-V/beta-8, 6.10. The compound also registered a chromatographic logD in series [1] of 1.47.

With `O=C(O)CC(NC(=O)CCCCc1ccc2c(n1)NCCC2)c1cccc(Cl)c1Cl` (racemic), the pIC50 on Integrin alpha-V/beta-6 was 5.10; on Integrin alpha-V/beta-3, 5.40; at Integrin alpha-V/beta-5, 6.30; on Integrin alpha-V/beta-8, 5.00. The chromatographic logD in series [1] turned out to be 2.73.

For `COc1ccc(C(CC(=O)O)NC(=O)CCCCc2ccc3c(n2)NCCC3)cc1OC` (racemic), the pIC50 on Integrin alpha-V/beta-6 was 6.50; against Integrin alpha-V/beta-3, 7.00; against Integrin alpha-V/beta-5, 7.20; on Integrin alpha-V/beta-8 it was 6.40. In series [1], the chromatographic logD was found to be 1.37.

In the case of `O=C(O)CC(NC(=O)CCCCc1ccc2c(n1)NCCC2)c1ccc(Cl)c(Cl)c1` (racemic), the pIC50 is 6.70 at Integrin alpha-V/beta-6, 7.30 at Integrin alpha-V/beta-3, 7.00 against Integrin alpha-V/beta-5 and 6.70 against Integrin alpha-V/beta-8. Further, the chromatographic logD in series [1] worked out at 2.62.

`O=C(O)CC(NC(=O)CCCCc1ccc2c(n1)NCCC2)c1ccc2c(c1)CCC2` (racemic): the pIC50 was 6.80 against Integrin alpha-V/beta-6, 6.90 at Integrin alpha-V/beta-3, 7.10 against Integrin alpha-V/beta-5 and 6.40 against Integrin alpha-V/beta-8. In series [1], this compound gave a chromatographic logD of 2.52.

As for `N#Cc1cccc(C(CC(=O)O)NC(=O)CCCCc2ccc3c(n2)NCCC3)c1` (racemic), the pIC50 at Integrin alpha-V/beta-6 is 6.60; at Integrin alpha-V/beta-3, 6.70; against Integrin alpha-V/beta-5, 7.40; against Integrin alpha-V/beta-8, 6.00. For the same compound, the chromatographic logD in series [1] was 1.67.

As for `O=C(O)CC(NC(=O)CCCCc1ccc2c(n1)NCCC2)c1cc(Cl)cc(Cl)c1` (stereo in doubt; 37E1), the pIC50 was 5.20 against Integrin alpha-V/beta-6, under 5.00 on Integrin alpha-V/beta-3, 6.00 on Integrin alpha-V/beta-5 and under 5.00 on Integrin alpha-V/beta-8. This compound returned a logD in series [1] of 2.97.

Turning to `O=C(O)CC(NC(=O)CCCCc1ccc2c(n1)NCCC2)c1cccc(Cl)c1` (racemic), the pIC50 against Integrin alpha-V/beta-6 was 6.60; at Integrin alpha-V/beta-3, 7.10; on Integrin alpha-V/beta-5, 7.60; at Integrin alpha-V/beta-8, 6.30. Also, the chromatographic logD in series [1] came to 2.3.

`Cc1ccc(C(CC(=O)O)NC(=O)CCCCc2ccc3c(n2)NCCC3)cc1C` (racemic): the negative-log IC50 (pIC50) was 6.70 at Integrin alpha-V/beta-6, 7.20 against Integrin alpha-V/beta-3, 7.20 against Integrin alpha-V/beta-5 and 6.30 on Integrin alpha-V/beta-8. Further, the chromatographic logD in series [1] is 2.29.

As to `O=C(O)CC(NC(=O)CCCCc1ccc2c(n1)NCCC2)c1cccc(OC(F)(F)F)c1` (racemic), the pIC50 at Integrin alpha-V/beta-6 is 6.70; against Integrin alpha-V/beta-3 it was 6.40; on Integrin alpha-V/beta-5, 7.10; on Integrin alpha-V/beta-8, 6.60. In series [1], this compound returned a chromatographic logD of 3.11.

With `O=C(O)CC(NC(=O)CCCCc1ccc2c(n1)NCCC2)c1ccc(Cl)cc1` (racemic), the negative logarithm of the IC50 (pIC50) against Integrin alpha-V/beta-6 is 6.40; against Integrin alpha-V/beta-3 it was 6.90; against Integrin alpha-V/beta-5, 6.90; against Integrin alpha-V/beta-8 it was 6.20. Also, in series [1], the chromatographic logD is 2.14.

(Values after ChEMBL document CHEMBL3351497, “Structure Activity Relationships of αv Integrin Antagonists for Pulmonary Fibrosis by Variation in Aryl Substituents” (ACS Med Chem Lett, 2014).)
